Assay results taken from patent US20240409558A1, “IRREVERSIBLE INHIBITORS OF KRAS” (BIOMEA FUSION, INC., priority 2021, published 2024).

Tested on: human KRAS G12C mutated cell line MIA PaCa-2
Assay: Inhibition of proliferation of MIA PaCa-2 cells (CellTiter-Glo, 7 day)
Type: cell-based
Settings: 168 h, Table 2, CellTiter-Glo luminescence read on day 7, read-out: MIA PaCa-2 IC50
Description: The present example evaluates the ability of compounds provided herein to inhibit proliferation of KRAS mutant cells.
The proliferation inhibitory effect was investigated in the human KRAS G12C mutated cell line MIA PaCa-2 (Yunis et al., 1977, Int. J. Cancer 19(1):128-135; ATCC catalog no. CRL-1420). Cells were maintained in RPMI-1640 medium (ThermoFisher catalog no. 61870036) supplemented with 10% of Heat Inactivated FBS (ThermoFisher catalog no. A31605) and 1% Pen-Strep (ThermoFisher catalog no. 10378016) and cultured at 37° C. in a humidified incubator with 5% CO2. Cell lines were grown by adhering to culture flasks, and the cells were maintained in a range 70%-80% confluency.
ATP is present in all metabolically active cells and is considered as a marker for cell viability and proliferation. Metabolic cell activity was determined using the CellTiter-Glo kit (Promega catalog no. G7572), an ATP monitoring system based on the production of luminescence by the reaction of ATP with added UltraGlo® recombinant luciferase (Kawano et al., 2016, PLOS One, 8; 11(7):e0158888), according to the supplier's experimental recommendations. The assay was based on a 96 well plate format.
Test compounds were dissolved at 10 mM in DMSO (Sigma catalog no. D8418; purity >99.9%) and stored at −20° C. Eight concentrations of test compound were assessed in duplicate in an individual test occasion in parallel in the selected cell lines. MRTX-849 and AMG-510 were used as reference compounds and tested in duplicate at eight concentrations. 100% of proliferation is represented by the untreated cells (0.2% DMSO).
(§1) On the day of the experiment (TO), cells were detached with TrypLE (ThermoFisher catalog no. 12604054) and quantified using the Vi-CELL XR Cell Viability (Beckman Coulter) analyzer and diluted with fresh medium to obtain the cell density of about 1000 cells per 200 μL medium. 200 μL of cell suspension were added into wells in the 96 well plate.
After 2 hours from seeding cells, compounds were added using a D300e compound dispenser (Tecan Trading AG) at desired concentrations with shaking between each compound dispensed. Cell plates containing 200 μL/well were incubated at 37° C. in a humidified incubator with 5% CO2.
On day T3, 150 μL of growth media per well were removed from plates containing the samples, 150 uL fresh growth media were added to each well, and fresh compounds were added using a D300e compound dispenser (Tecan Trading AG) at desired concentrations with shaking between each compound dispensed. Cell plates containing 200 uL/well were incubated at 37° C. in a humidified incubator with 5% CO2. On day T7 plates containing the samples were equilibrated at room temperature for approximately 15 min, and then 40 μL/well of the Promega CellTiterGlo® reagent was added. Contents were mixed for 30 minutes on an orbital shaker to induce cell lysis. Luminescence was read using a Synergy Neo 2 (Agilent Technologies.
Data was expressed as % of inhibition compared to the 0.2% DMSO negative control, and is calculated as follows: % inhibition=100−[(RLU sample)×100/(RLU controls*)], where * indicates the average for 0.2% DMSO. […]
as §1, with “12604054),” for “12604054) and”, “resuspended in” for “diluted with”, “at a” for “to obtain the”, “to each well of a” for “into wells in the”
Two hours after seeding cells, compounds were added at desired concentrations using a D300e compound dispenser (Tecan Trading AG) with shaking after each compound addition. Assay plates were incubated at 37° C. in a humidified incubator with 5% CO2.
On day 3 (T3) 150 μL of medium from assay plates were removed. 150 μL fresh medium and compounds were added at desired concentrations using a D300e compound dispenser (Tecan Trading AG) with shaking after each compound addition. […]

| Structure (SMILES) | IC50 |
| --- | --- |
| Oc1cc(Cl)c(C2CC2)c(-c2ccc3c(C4CC5CCC(C4)N5)nc(OCC45CCCN4CC(F)C5)nc3c2F)c1 (stereo not shown) [Compound 205] | 0.358 µM |

Same assay, conditions: 168 h, Table 3, 7 day, mean, read-out: MIA PaCa-2 IC50 (μM) 7 day Mean

| Structure (SMILES) | IC50 |
| --- | --- |
| C=CC(=O)N1CCN(c2nc(OC[C@@]34CCCN3C[C@H](F)C4)nc3cc(-c4c(O)cccc4C4CC4)c(F)cc23)[C@H](C)C1 [Compound 325, 1-[(3R)-4-[7-(2-cyclopropyl-6-hydroxy-phenyl)-6-fluoro-2-[[(2R,8S)-2-fluoro-1,2,3,5,6,7-hexahydropyrrolizin-8-yl]methoxy]quinazolin-4-yl]-3-methyl-piperazin-1-yl]prop-2-en-1-one] | 0.0112 µM |
| C=CC(=O)N1CCC(CC)(c2nc(OC[C@@]34CCCN3C[C@H](F)C4)nc3c(F)c(-c4cc(O)cc(Cl)c4C4CC4)ncc23)CC1 [Compound 332, 1-[4-[7-(3-chloro-2-cyclopropyl-5-hydroxy-phenyl)-8-fluoro-2-[[(2R,8S)-2-fluoro-1,2,3,5,6,7-hexahydropyrrolizin-8-yl]methoxy]pyrido[4,3-d]pyrimidin-4-yl]-4-ethyl-1-piperidyl]prop-2-en-1-one] | > 1 µM |
| C=CC(=O)N1CCN(c2nc(OC[C@@]34CCCN3C[C@H](F)C4)nc3c(F)c(-c4cc(O)cc(Cl)c4C4CC4)ccc23)CC12CC2 [Compound 313, 1-[7-[7-(3-chloro-2-cyclopropyl-5-hydroxy-phenyl)-8-fluoro-2-[[(2R,8S)-2-fluoro-1,2,3,5,6,7-hexahydropyrrolizin-8-yl]methoxy]quinazolin-4-yl]-4,7-diazaspiro[2.5]octan-4-yl]prop-2-en-1-one] | 0.0373 µM |
| C=CC(=O)N1CCN(c2nc(OC[C@@]34CCCN3C[C@H](F)C4)nc3cc(-c4cc(O)cc(Cl)c4C4CC4)cnc23)CC12CC2 [Compound 314, 1-[7-[7-(3-chloro-2-cyclopropyl-5-hydroxy-phenyl)-2-[[(2R,8S)-2-fluoro-1,2,3,5,6,7-hexahydropyrrolizin-8-yl]methoxy]pyrido[3,2-d]pyrimidin-4-y1]-4,7-diazaspiro[2.5]octan-4-yl]prop-2-en-1-one] | > 1 µM |
| C=CC(=O)N1CCN(c2nc(OC[C@@]34CCCN3C[C@H](F)C4)nc3cc(-c4cccc5cccc(Cl)c45)c(F)cc23)C2(CC2)C1 [Compound 315] | > 1 µM |
| C=CC(=O)N1CCN(c2nc(OC[C@@]34CCCN3C[C@H](F)C4)nc3cc(-c4cc(O)cc(Cl)c4C4CC4)c(F)cc23)CC12CC2 [Compound 317, 1-[7-[7-(3-chloro-2-cyclopropyl-5-hydroxy-phenyl)-6-fluoro-2-[[(2R,8S)-2-fluoro-1,2,3,5,6,7-hexahydropyrrolizin-8-yl]methoxy]quinazolin-4-yl]-4,7-diazaspiro[2.5]octan-4-yl]prop-2-en-1-one] | > 1 µM |
| C=CC(=O)N1CCN(c2nc(OC[C@@]34CCCN3C[C@H](F)C4)nc3cc(-c4cc(O)cc(Cl)c4C4CC4)cnc23)C2(CC2)C1 [Compound 319, 1-[4-[7-(3-chloro-2-cyclopropyl-5-hydroxy-phenyl)-2-[[(2R,8S)-2-fluoro-1,2,3,5,6,7-hexahydropyrrolizin-8-yl]methoxy]pyrido[3,2-d]pyrimidin-4-yl]-4,7-diazaspiro[2.5]octan-7-yl]prop-2-en-1-one] | > 1 µM |
| C=CC(=O)N1C[C@H]2C[C@@H]1CN2c1nc(OC[C@@]23CCCN2C[C@H](F)C3)nc2cc(-c3cc(O)cc(Cl)c3C3CC3)c(F)cc12 [Compound 318, 1-[(1R,4R)-5-[7-(3-chloro-2-cyclopropyl-5-hydroxy-phenyl)-6-fluoro-2-[[(2R,8S)-2-fluoro-1,2,3,5,6,7-hexahydropyrrolizin-8-yl]methoxy]quinazolin-4-yl]-2,5-diazabicyclo[2.2.1]heptan-2-yl]prop-2-en-1-one] | > 1 µM |
| C=CC(=O)N1C2CCC1CN(c1cc(OC[C@@]34CCCN3C[C@H](F)C4)nc3c(F)c(-c4cc(O)cc(Cl)c4C4CC4)ccc13)C2 [Compound 326] | > 1 µM |

Same assay, conditions: 168 h, Table 4, 7 day, mean, read-out: MIA PaCa-2 IC50 (μM) 7 day Mean

| Structure (SMILES) | IC50 |
| --- | --- |
| Oc1cc(Cl)c(C2CC2)c(-c2cc3nc(OC[C@@]45CCCN4C[C@H](F)C5)nc(N4C[C@H]5C[C@@H]4CN5)c3cc2F)c1 [Compound 417] | > 1 µM |
| Oc1cc(Cl)c(C2CC2)c(-c2ccc3c(N4C[C@H]5C[C@@H]4CN5)nc(OC[C@@]45CCCN4C[C@H](F)C5)nc3c2F)c1 [Compound 424, 3-chloro-4-cyclopropyl-5-[4-[(1R,4R)-2,5-diazabicyclo[2.2.1]heptan-2-y1]-8-fluoro-2-[[(2R,8S)-2-fluoro-1,2,3,5,6,7-hexahydropyrrolizin-8-yl]methoxy]quinazolin-7-yl]phenol] | > 1 µM |
| N#C[C@H]1CNCCN1c1nc(OC[C@@]23CCCN2C[C@H](F)C3)nc2cc(F)c(-c3cccc4cccc(Cl)c34)cc12 [Compound 407, (2R)-1-[6-(8-chloro-1-naphthyl)-7-fluoro-2-[[(2R,8S)-2-fluoro-1,2,3,5,6,7-hexahydropyrrolizin-8-yl]methoxy]quinazolin-4-yl]piperazine-2-carbonitrile] | > 1 µM |
| Oc1cc2cccc(-c3ncc4c(N5CC6CCC(C5)N6)nc(OC[C@@]56CCCN5C[C@H](F)C6)nc4c3F)c2c(F)c1F [Compound 401, 5-[4-(3,8-diazabicyclo[3.2.1]octan-3-yl)-8-fluoro-2-[[(2R,8S)-2-fluoro-1,2,3,5,6,7-hexahydropyrrolizin-8-yl]methoxy]pyrido[4,3-d]pyrimidin-7-y1]-3,4-difluoro-naphthalen-2-ol] | > 1 µM |
| F[C@H]1CN2CCC[C@@]2(COc2cc(N3C[C@H]4C[C@@H]3CN4)c3ncc(-c4cccc5cccc(Cl)c45)cc3n2)C1 [Compound 422, 7-(8-chloro-1-naphthyl)-4-[(1R,4R)-2,5-diazabicyclo[2.2.1]heptan-2-y1]-2-[[(2R,8S)-2-fluoro-1,2,3,5,6,7-hexahydropyrrolizin-8-yl]methoxy]-1,5-naphthyridine] | > 1 µM |
| N#CC1CNCCN1c1nc(OC[C@@]23CCCN2C[C@H](F)C3)nc2cc(-c3cc(O)cc(Cl)c3C3CC3)cnc12 (stereo partly drawn) [Compound 416, 1-[7-(3-chloro-2-cyclopropyl-5-hydroxy-phenyl)-2-[[(2R,8S)-2-fluoro-1,2,3,5,6,7-hexahydropyrrolizin-8-yl]methoxy]pyrido[3,2-d]pyrimidin-4-yl]piperazine-2-carbonitrile] | > 1 µM |
| C[C@@H]1CNCCN1c1nc(OC[C@@]23CCCN2C[C@H](F)C3)nc2cc(-c3c(O)cccc3C3CC3)cnc12 [Compound 413] | > 1 µM |
| Fc1cc2c(N3CCNCC34CC4)nc(OC[C@@]34CCCN3C[C@H](F)C4)nc2cc1-c1cccc2cccc(Cl)c12 [Compound 408, 7-(8-chloro-1-naphthyl)-4-(4,7-diazaspiro[2.5]octan-4-yl)-6-fluoro-2-[[(2R,8S)-2-fluoro-1,2,3,5,6,7-hexahydropyrrolizin-8-yl]methoxy]quinazoline] | > 1 µM |
| N#C[C@H]1CNCCN1c1nc(OC[C@@]23CCCN2C[C@H](F)C3)nc2c(F)c(-c3cc(O)cc(Cl)c3C3CC3)ccc12 [Compound 415, (2R)-1-[7-(3-chloro-2-cyclopropyl-5-hydroxy-phenyl)-8-fluoro-2-[[(2R,8S)-2-fluoro-1,2,3,5,6,7-hexahydropyrrolizin-8-yl]methoxy]quinazolin-4-y1]piperazine-2-carbonitrile] | > 1 µM |
